Results from a melting point compilation (Tetko et al.; mined from patent text by program, amines drawn as free bases though some values may be those of a salt).

Structure (SMILES) | melting point
CNC(=O)[C@@H](N)Cc1ccc(OC)cc1 | 90 to 91 °C
CC(NC(=O)Cc1cc(F)cc(F)c1)C(=O)NC1C(=O)N(C)Cc2ccccc21 (stereo not drawn) | 174 to 175 °C
CC(=O)Nc1nc2ccc(O)cc2n1S(=O)(=O)N(C)C | 175 to 176 °C
CCCCCCCCCCCCS(=O)CCOc1ccc(CCC(=O)C(F)(F)F)cc1 (stereo not drawn) | 98 to 100 °C
CC12CCC3C(CCC4CC(O)CCC43C)C1CCC2C#N (stereo not drawn) | 156 to 158 °C
CC(=O)C1CCC2C3CCC4CC(O)C(Br)CC4(C)C3C(=O)CC12C (stereo not drawn) | 172 to 173 °C
Nc1nc(Cl)c(Cl)nc1[N+](=O)[O-] | 169 to 170 °C
Cc1cccc2c1CCn1cc(-c3ccccc3)nc1C2OC1CCN(C)CC1 (stereo not drawn) | 71 °C
N#CC1(N2CCC(n3c(=O)[nH]c4ccccc43)CC2)CCCCC1 | 199 to 201 °C
Cc1cc(C#N)cc(C(N)=O)c1NC(=O)c1cc(Br)nn1-c1ncccc1Cl | > 255 °C
COc1ccc(C2=NNS(=O)(=O)Cc3cc4nsnc4cc32)cc1 | 225 to 227 °C
O=C(Nc1ccccc1)c1cc2ccccc2s1 | 188 °C
CN(C)c1cc(CCl)nc(N)n1 | 127 to 129 °C
CC(C)(O)c1cccc(-c2ccc3nc(-c4ccc5cc[nH]c5c4)cn3c2)c1 | 203 to 204 °C
CC(=O)Nc1ncc(C#Cc2cnn3c(C(F)(F)F)cc(-c4ccc(C(F)(F)F)cc4)nc23)cn1 | 293 °C
Oc1cc(Cl)nnc1-c1ccc(F)cc1 | 254 to 260 °C
COc1ccc(COc2cccnc2NC(=N)Nc2ccc(Cl)cc2)c(F)c1 | 158 to 161 °C
CN1c2ccccc2CCC1c1ccccc1 (stereo not drawn) | 99 to 101 °C
COc1cc2oc(=O)c3c(c2cc1NC(C)=O)CCN(CC(C)=O)C3 | 210 to 215 °C
O=C(/C=C/[C@H]1CC[C@@H]2OC(=O)C[C@@H]21)COc1ccccc1 | 91 °C
CCOC(=O)C1=C(C)NC(N=C(C)N(C)C)=C(C(=O)OCC)C1c1ccccc1Cl (stereo not drawn) | 181 °C
O=S(=O)(c1ccccc1)N1CCC(C(c2ccc(F)cc2)c2ccc(F)cc2)CC1 | 180 to 184 °C
O=C1CCCNc2ccc(Br)cc21 | 99 to 101 °C

Structure (SMILES) | melting point
O=C(O)[C@H]1C=C[C@H](c2ccccc2)n2c(=O)n(CCCl)c(=O)n21 (relative stereo) | 141 to 143 °C
CC(C)(O)CCn1c(=O)n(C(=O)N[C@H](C(N)=O)C(C)(C)C)c2ccccc21 | 248 °C
O=C(NCCNCc1cc2cc(OCc3ccccc3)ccc2o1)C12CC3CC(CC(C3)C1)C2 | 169 to 170 °C
OCCOCCn1ccc2ncnc(Nc3ccc(Oc4cccc(C(F)(F)F)c4)c(Cl)c3)c21 | 130 to 132 °C
COc1cc(C(=O)c2nc(NC(C)=O)c3ccccn23)ccc1[N+](=O)[O-] | 256 °C
CCC1CCc2cc(CC(=O)O)ccc2O1 (stereo not drawn) | 88 to 90 °C
Cc1c(=O)n(Cc2ccc(C(=O)OC(C)(C)C)cc2)c(=O)n2ccsc12 | 163 to 165 °C
N#CC(=CC(=O)c1ccccc1)C(=O)O | 74 to 75 °C
O=C1CCCC2=C1C(c1ccc(Cl)c(C(F)(F)F)c1)C1=C(CCS1)N2 (single isomer, unassigned; (+)) | > 250 °C
N#Cc1ccc(Cn2cc(C#N)nn2)cc1 | 93.5 to 94 °C
CCOC(=O)c1cn2c3c(c(-c4cc(C)nc(C)c4)c(F)cc3c1=O)OC[C@@H]2C | 267 to 273 °C
CN1Cc2cccc(S(N)(=O)=O)c2S1(=O)=O | 195 to 197 °C
CC(O)Cn1cncn1 (stereo not drawn) | 110 to 112 °C
OCc1conc1-c1ccc(F)c(Cl)c1 | 87 to 88 °C
COc1ccc(-c2ccc(-c3ccc(F)cc3)nc2-c2ccc(OC)cc2)cc1 | 118 to 120 °C
CC(C)NCCOc1ccc(O)cc1 | 78 to 80 °C
COc1cc(COc2cc(C(=O)O)n(-c3ccccc3)n2)ccc1OCc1nc(-c2ccccc2)oc1C | 192 to 193 °C
CCCC1CCCCCc2c1oc(=O)c(C(c1ccccc1)C1CC1)c2O (stereo not drawn) | 78 to 84 °C
Nc1cc(Cl)nc(OCc2cccc3ccccc23)n1 | 160 to 161 °C
CCCCc1nc(C(F)(F)F)c(CO)n1Cc1ccc(-c2ccccc2C#N)cc1 | 136 to 138 °C
COc1c(C(=O)NC2CN3CCC2CC3)cc(Cl)c2c1CCN2 (stereo not drawn) | 107 to 109 °C
FC(F)(F)Sc1c(-c2ccc(Cl)cc2)[nH]c(Br)c1Br | 107 to 113 °C
COc1ccc(C=C(c2ccc(OC)cc2)N(C)C)cc1 | 67 to 69 °C

Structure (SMILES) | melting point
COc1ccc(C(=O)Nc2nc3ccc(N4CCN(C)CC4)cc3c(NCc3ccccc3)c2C#N)cc1 | 173 °C
COc1ccc(-c2c(Cl)c(CN3C(=O)COC3=O)nc3sc4c(c23)CCC(C(N)=O)C4)cc1 (stereo not drawn) | 155 to 156 °C
COC(=O)NNc1cc(C)cc2c1OC(C)C2 (stereo not drawn) | 82 to 84 °C
Clc1cccc(Cl)c1C=Nc1c2c(nc3ccccc13)CCCC2 | 200 to 202 °C
COc1ccc(Cc2ccc3c(c2)OCO3)c(OC)c1 | 51 °C
O=S1(=O)c2cccc3cccc(c23)N1CCCl | 96 °C
COc1cc(C(=O)O)cc2ccc(-c3ccc4c(c3)C(C)(C)CCC4(C)C)cc12 | 242 °C
Cc1coc2c1C(=O)CC(c1cccs1)C2 (stereo not drawn) | 81 to 82 °C
CCOC(=O)C1C(=O)Nc2ccccc2C1c1ccccc1 (stereo not drawn) | 178 to 180 °C
COc1cc(-c2csnc2C)cc2oc(=O)c(C)c(C)c12 | 163 to 165 °C
FC(F)(F)C(F)(F)Cc1ccc(CBr)cc1 | 62 to 63 °C
COc1ccc(OC)c2nc(Cl)c(C=O)cc12 | 177 to 178 °C
CCCCCCCCCCCCCCCCc1cc2c(s1)-n1c(C)nnc1CN=C2c1ccccc1Cl | 58 to 60 °C
CCOC(=O)c1c[nH]c(-c2ccccc2OCc2ccccc2)n1 | 203 to 205 °C
CCOC(=O)c1c(N)c2c(n1C)N=CCN2 | 119 to 121 °C
O=c1oc2ccccc2cc1CCN1CCC(Nc2nc3ccccc3n2Cc2ccc(F)cc2)CC1 | 168 °C
O=C1OCCN1c1ccc([N+](=O)[O-])cc1Cl | 94 to 96 °C
CC1(C)CN=C(NCC2CCCc3ccc(S(=O)(=O)c4ccccc4)cc32)NC1 (stereo not drawn) | 140 to 145 °C
O=C(O)C=CC(=S)c1ccc(-c2ccccc2)cc1 | 157 to 159 °C
CC(OCc1cc2nc(Cl)ccc2n1S(=O)(=O)c1ccc2ncsc2c1)C(=O)O (stereo not drawn) | 179 °C
Cc1nc(C(=O)NC(C)(CO[N+](=O)[O-])CO[N+](=O)[O-])cs1 | 78 to 81 °C

The remaining lines, values ahead:

melting point | Structure (SMILES)
148 to 150 °C | N#Cc1ccc(Cn2cncn2)cc1-c1ccc(Cl)c(OS(N)(=O)=O)c1
102 to 104 °C | CCN(C)C(C)CN1CCc2c(c(=O)oc3cc(OC)ccc23)C1 (stereo not drawn)
122 °C | CN(C(=O)c1ccc(C(=O)C(C)(C)C)cc1)C(=O)c1ccc(C(=O)C(C)(C)C)cc1
44.5 to 46.5 °C | Clc1cc(Cl)cc(CC(Cl)CC(Cl)(Cl)Cl)c1 (stereo not drawn)
135 to 140 °C | CC1CC(=O)c2c(ccc(Cl)c2Cl)O1 (stereo not drawn)
158 to 160 °C | CC(C)CNC(=O)c1ccc(-c2ccc3nnn(Cc4ccc5ncccc5c4)c3n2)cc1F
241 to 243 °C | ON=C1c2ccccc2CSc2ccccc21
159 to 162 °C | N#Cc1cc(C(=O)NNC(=O)c2occc2-c2ccccc2-c2ccccc2)ccc1O
131 to 132 °C | CC(C)=C(C#N)C(=O)NCc1ccc(Cl)c(Cl)c1
120 to 123 °C | O=C1N(Cc2ccc3c(c2)OCCO3)c2ccccc2C12COc1cc3c(cc12)OCCO3 (stereo not drawn)
167 to 168 °C | N#Cc1nc(N)c(-c2ccccc2)nc1C#N
147 to 149 °C | COC(CN(C(=O)C(C)C)C(C(=O)O)c1ccccc1)OC (stereo not drawn)
231 to 233 °C | CCOC(=O)CNc1c(N)c(=O)c1=O
108 °C | c1ccc(-c2n[nH]cc2-c2ccnc(-c3ccc(OCCn4ccnc4)cc3)c2)nc1
> 250 °C | CS(=O)(=O)Nc1cc2oc(C(N)=O)cc(=O)c2cc1Oc1ccccc1
218 to 222 °C | CC(=O)CCc1cc(F)c2ncc(C(=O)NCc3ccc(Cl)cc3)c(O)c2c1
135 to 136 °C | C=CCc1c(C(=O)OC)[nH]c2c(C)ccc(C)c12
137 °C | O=C(NC12CC3CC(CC(C3)C1)C2)c1cccc2c1OCCO2

melting point | Structure (SMILES)
163 °C | CNC(=O)c1cccc(NC(=O)Cc2cccc(O)c2)c1
67 to 68 °C | C=CCNc1cc(Oc2ccccc2)ccc1[N+](=O)[O-]
60 to 62 °C | CC(C)C[C@@H](OS(=O)(=O)c1ccc([N+](=O)[O-])cc1)C(=O)O
200 to 201 °C | COC(=O)c1cc2c([nH]c3ccccc32)s1
194 to 195 °C | CC1=NC(NC(=O)CCc2ccc(Cl)cc2Cl)C(=O)N(C)c2ccccc21 (stereo not drawn)
194 to 195 °C | Cc1ccc(N(C)S(=O)(=O)c2cccs2)c2[nH]c(-c3ncc(CCl)s3)cc12
278 to 280 °C | CC(=O)Nc1ccc(N)c2c1C(=O)C(O)(c1ccc(C(C)C)cc1O)C2=O (stereo not drawn)
178 to 180 °C | Cc1cc(Cl)cc2c(=O)oc(-c3cc(OCC(F)(F)F)nn3-c3ncccc3Cl)nc12
> 280 °C | CCn1c(=O)c2[nH]c(/C=C/c3cc(F)cc(F)c3)nc2n(CC)c1=O
198 to 201 °C | COc1cccc(NC(=O)Nc2ccc(N3CCN(C(=O)Nc4ccc(OCCO)cc4Cl)CC3)cc2)c1
142 to 145 °C | Cc1c(-c2ccc3c(c2)OCO3)[nH]c2ccc(OCc3ccccc3)cc12
245 to 247 °C | COc1nc2ccccc2n(-c2ccc(Cl)cc2)c1=O
142 to 144 °C | O=C(CC(CCCc1ccccc1)C(=O)O)c1ccc2c3c(oc2c1)CCCC3 (stereo not drawn)
110 °C | CCCCc1nc(CO)c(SCC)n1Cc1ccc(-c2ccccc2C(=O)OC)cc1
71 to 78 °C | CCOC(=NC(=O)c1ccc(OC)cc1)N1Cc2ccccc2-c2ccccc2C1
194 to 195 °C | CCCOc1cc(O)nc(N(C)C)n1
103 to 105 °C | CCNc1ncn(CC)c2nc(C3CC3)nc1-2
133 to 135 °C | CN1C(=S)N(c2cc(C(F)(F)F)cc(C(F)(F)F)c2)C(O)C1O (stereo not drawn)
